Laboratory results: patent US10722587B2, “Composition for intracellular delivery containing adenovirus protein VI-derived peptide and anticancer pharmaceutical composition containing same” (priority 2015, dated 2020)

Test system: Hela cell line
Assay: MTT assay, oncolytic capability and cytotoxicity
Assay type: cell-based, human
Settings: 4 days
Protocol: In this example, to confirm the adenoviral proliferation capability and oncolytic capability of Ad pDNA-polymer-peptide complexes, a complex was manufactured using polymer PAM-ABP and d pDNA containing viral DNA of H-Rd19-k35/DCN/shcMet, which is a tumor-selective oncolytic adenovirus expressing adenovirus DNA such as decorin (DCN) and shcMet. A human uterine cancer cell line, Hela cell line, was inoculated into a 12-well plate, and after 24 hours, treated with naked Ad pDNA, Ad pDNA/PAM-ABP, Ad pDNA/PAM-ABP/peptide complexes in which 6 types of peptides such as mVI, mVI-TAT, mVI-TAT-A, mVI-G-TAT-A, mVI-A-TAT and mVI-G-A-TAT were conjugated with Ad pDNA/PAM-ABP, and controls such as VI-9R and a complex with a TAT peptide. In addition, to verify cytotoxicity, the cells were treated with PAM-ABP or a peptide alone. Four days after the treatment, the culture solution was collected, and the number of adenovirus particles was detected using Q-PCR, and to verify oncolytic capability, 2 mg/ml of 3-(4,5-dimethylthiazol-2-yl)-2,5-diphenyl-tetrazolium bromide (MTT; Sigma Aldrich) in PBS was added at 200 μL to each well of the supernatant-removed plate, and cultured at 37° C. for 4 hours. Afterward, the supernatant was removed, the precipitate was dissolved in 1.0 ml dimethyl sulfoxide, the absorbance was analyzed by reading the plate at 540 nm on a microplate reader, and a non-treated cell group was classified as a negative control.

| Compound | cytotoxicity of peptide alone |
| --- | --- |
| CC[C@H](C)[C@H](NC(=O)CNC(=O)[C@H](CO)NC(=O)[C@H](Cc1c[nH]c2ccccc12)NC(=O)[C@H](CC(C)C)NC(=O)[C@H](CO)NC(=O)CNC(=O)[C@H](Cc1c[nH]c2ccccc12)NC(=O)[C@@H](N)CO)C(=O)N[C@@H](CCCCN)C(=O)N[C@@H](CC(N)=O)C(=O)N[C@@H](Cc1ccccc1)C(=O)NCC(=O)N[C@@H](CCCNC(=N)N)C(=O)N[C@@H](CCCNC(=N)N)C(=O)N[C@@H](CCCNC(=N)N)C(=O)N[C@@H](CCCNC(=N)N)C(=O)N[C@@H](CCCNC(=N)N)C(=O)N[C@@H](CCCNC(=N)N)C(=O)N[C@@H](CCCNC(=N)N)C(=O)N[C@@H](CCCNC(=N)N)C(=O)N[C@@H](CCCNC(=N)N)C(=O)O [VI-9R] | high cytotoxicity |
| CC[C@H](C)[C@H](NC(=O)CNC(=O)[C@H](CO)NC(=O)[C@H](Cc1c[nH]c2ccccc12)NC(=O)[C@H](CC(C)C)NC(=O)[C@H](CO)NC(=O)CNC(=O)[C@H](Cc1c[nH]c2ccccc12)NC(=O)[C@H](CO)NC(=O)[C@H](Cc1ccccc1)NC(=O)[C@H](C)N)C(=O)N[C@@H](CCCCN)C(=O)N[C@@H](CC(N)=O)C(=O)N[C@@H](Cc1ccccc1)C(=O)NCC(=O)N[C@@H](C)C(=O)N[C@@H](CC(C)C)C(=O)N[C@@H](C)C(=O)N[C@@H](CCC(=O)O)C(=O)N[C@@H](CCCNC(=N)N)C(=O)N[C@@H](CCCCN)C(=O)N[C@@H](CCCCN)C(=O)N[C@@H](CCCNC(=N)N)C(=O)N[C@@H](CCCNC(=N)N)C(=O)N[C@@H](CCC(N)=O)C(=O)N[C@@H](CCCNC(=N)N)C(=O)N[C@@H](CCCNC(=N)N)C(=O)N[C@@H](CCCNC(=N)N)C(=O)O [mVI-A-TAT] | relatively high cytotoxicity |
| CC[C@H](C)[C@H](NC(=O)CNC(=O)[C@H](CO)NC(=O)[C@H](Cc1c[nH]c2ccccc12)NC(=O)[C@H](CC(C)C)NC(=O)[C@H](CO)NC(=O)CNC(=O)[C@H](Cc1c[nH]c2ccccc12)NC(=O)[C@H](CO)NC(=O)[C@H](Cc1ccccc1)NC(=O)[C@H](C)N)C(=O)N[C@@H](CCCCN)C(=O)N[C@@H](CC(N)=O)C(=O)N[C@@H](Cc1ccccc1)C(=O)NCC(=O)N[C@@H](Cc1ccccc1)C(=O)N[C@@H](CC(C)C)C(=O)NCC(=O)N[C@@H](C)C(=O)N[C@@H](CC(C)C)C(=O)N[C@@H](C)C(=O)N[C@@H](CCC(=O)O)C(=O)N[C@@H](CCCNC(=N)N)C(=O)N[C@@H](CCCCN)C(=O)N[C@@H](CCCCN)C(=O)N[C@@H](CCCNC(=N)N)C(=O)N[C@@H](CCCNC(=N)N)C(=O)N[C@@H](CCC(N)=O)C(=O)N[C@@H](CCCNC(=N)N)C(=O)N[C@@H](CCCNC(=N)N)C(=O)N[C@@H](CCCNC(=N)N)C(=O)O [mVI-G-A-TAT] | relatively high cytotoxicity |
| CC[C@H](C)[C@H](NC(=O)CNC(=O)[C@H](CO)NC(=O)[C@H](Cc1c[nH]c2ccccc12)NC(=O)[C@H](CC(C)C)NC(=O)[C@H](CO)NC(=O)CNC(=O)[C@H](Cc1c[nH]c2ccccc12)NC(=O)[C@H](CO)NC(=O)[C@H](Cc1ccccc1)NC(=O)[C@H](C)N)C(=O)N[C@@H](CCCCN)C(=O)N[C@@H](CC(N)=O)C(=O)N[C@@H](Cc1ccccc1)C(=O)NCC(=O)N[C@@H](Cc1ccccc1)C(=O)N[C@@H](CC(C)C)C(=O)NCC(=O)N[C@@H](CCCNC(=N)N)C(=O)N[C@@H](CCCCN)C(=O)N[C@@H](CCCCN)C(=O)N[C@@H](CCCNC(=N)N)C(=O)N[C@@H](CCCNC(=N)N)C(=O)N[C@@H](CCC(N)=O)C(=O)N[C@@H](CCCNC(=N)N)C(=O)N[C@@H](CCCNC(=N)N)C(=O)N[C@@H](CCCNC(=N)N)C(=O)N[C@@H](C)C(=O)N[C@@H](CC(C)C)C(=O)N[C@@H](C)C(=O)N[C@@H](CCC(=O)O)C(=O)O [mVI-G-TAT-A] | relatively high cytotoxicity |
| CC[C@H](C)[C@H](NC(=O)CNC(=O)[C@H](CO)NC(=O)[C@H](Cc1c[nH]c2ccccc12)NC(=O)[C@H](CC(C)C)NC(=O)[C@H](CO)NC(=O)CNC(=O)[C@H](Cc1c[nH]c2ccccc12)NC(=O)[C@H](CO)NC(=O)[C@H](Cc1ccccc1)NC(=O)[C@H](C)N)C(=O)N[C@@H](CCCCN)C(=O)N[C@@H](CC(N)=O)C(=O)N[C@@H](Cc1ccccc1)C(=O)NCC(=O)O [mVI] | relatively high cytotoxicity |
